Test: xn = mol fraction of the nth substance listed
Conditions: 101 kPa, Liquid

Clc1ccccc1 [chlorobenzene] + CCCCCCCO
Conditions	mass density [kg/m3]	speed of sound [m/s]	viscosity [mPa·s]
298.15 K, x1 = 0.1306	846.348	1316.7	4.469
298.15 K, x1 = 0.2566	874.819	1305.5	3.335
298.15 K, x1 = 0.3866	906.448	1293.8	2.453
298.15 K, x1 = 0.4947	934.739	1284	1.911
298.15 K, x1 = 0.5878	960.727	1276	1.557
298.15 K, x1 = 0.6827	988.992	1269.1	1.273
298.15 K, x1 = 0.7682	1016.23	1264.6	1.073
298.15 K, x1 = 0.8521	1044.88	1262.7	0.918
298.15 K, x1 = 0.9255	1071.67	1263.8	0.817
298.15 K, x1 = 1	1100.97	1268	0.757
303.15 K, x1 = 0.1306	842.689	1300	3.832
303.15 K, x1 = 0.2566	870.964	1289	2.896
303.15 K, x1 = 0.3866	902.362	1277.6	2.164
303.15 K, x1 = 0.4947	930.425	1268.2	1.709
303.15 K, x1 = 0.5878	956.224	1260.7	1.406
303.15 K, x1 = 0.6827	984.268	1253.8	1.16
303.15 K, x1 = 0.7682	1011.3	1248.7	0.984
303.15 K, x1 = 0.8521	1039.69	1245.4	0.85
303.15 K, x1 = 0.9255	1066.23	1245.5	0.764
303.15 K, x1 = 1	1095.1	1249.4	0.714
308.15 K, x1 = 0.1306	838.9	1283.3	3.311
308.15 K, x1 = 0.2566	866.926	1272.1	2.532
308.15 K, x1 = 0.3866	898.052	1260.4	1.922
308.15 K, x1 = 0.4947	925.892	1250.2	1.543
308.15 K, x1 = 0.5878	951.47	1242	1.283
308.15 K, x1 = 0.6827	979.252	1235	1.059
308.15 K, x1 = 0.7682	1006.02	1230.1	0.915
308.15 K, x1 = 0.8521	1034.12	1227.6	0.816
308.15 K, x1 = 0.9255	1060.42	1228	0.733
308.15 K, x1 = 1	1089.08	1230.9	0.677
313.15 K, x1 = 0.1306	835.146	1266.5	2.872
313.15 K, x1 = 0.2566	862.967	1255.6	2.219
313.15 K, x1 = 0.3866	893.905	1243.8	1.705
313.15 K, x1 = 0.4947	921.55	1233.6	1.378
313.15 K, x1 = 0.5878	946.95	1225.3	1.135
313.15 K, x1 = 0.6827	974.575	1217.9	0.953
313.15 K, x1 = 0.7682	1001.13	1212.9	0.822
313.15 K, x1 = 0.8521	1029.02	1209.9	0.723
313.15 K, x1 = 0.9255	1055.08	1209.7	0.662
313.15 K, x1 = 1	1083.66	1212.6	0.617

CCCCCCO [hexan-1-ol] + Clc1ccccc1
x2 = 0
Conditions	mass density [kg/m3]	speed of sound [m/s]	viscosity [mPa·s]
298.15 K	815.23	1304.7	4.594
303.15 K	812.118	1287.9	3.887
308.15 K	808.482	1271.1	3.359
313.15 K	804.811	1254.5	2.914

CCCCCCCCCO [nonan-1-ol] + Clc1ccccc1
Conditions	mass density [kg/m3]	speed of sound [m/s]	viscosity [mPa·s]
298.15 K, x2 = 0	824.478	1365.5	9.715
298.15 K, x2 = 0.1529	850.648	1350.5	6.576
298.15 K, x2 = 0.3008	879.504	1333.3	4.488
298.15 K, x2 = 0.4379	910.112	1316.2	3.135
298.15 K, x2 = 0.5505	938.617	1302.2	2.329
298.15 K, x2 = 0.6413	964.273	1291.1	1.828
298.15 K, x2 = 0.7273	991.186	1281.2	1.455
298.15 K, x2 = 0.8031	1017.42	1274	1.192
298.15 K, x2 = 0.8744	1044.71	1269	0.999
298.15 K, x2 = 0.937	1071.14	1267.1	0.864
303.15 K, x2 = 0	821.044	1353.6	7.927
303.15 K, x2 = 0.1529	846.995	1332.6	5.56
303.15 K, x2 = 0.3008	875.625	1315.8	3.876
303.15 K, x2 = 0.4379	906.014	1299.5	2.752
303.15 K, x2 = 0.5505	934.309	1286	2.07
303.15 K, x2 = 0.6413	959.757	1275.1	1.646
303.15 K, x2 = 0.7273	986.433	1265.4	1.325
303.15 K, x2 = 0.8031	1012.44	1257.7	1.097
303.15 K, x2 = 0.8744	1039.48	1252	0.924
303.15 K, x2 = 0.937	1065.72	1249.1	0.802
308.15 K, x2 = 0	817.582	1331.8	6.664
308.15 K, x2 = 0.1529	843.265	1315.5	4.745
308.15 K, x2 = 0.3008	871.65	1298.5	3.365
308.15 K, x2 = 0.4379	901.759	1281.7	2.433
308.15 K, x2 = 0.5505	929.764	1267.7	1.858
308.15 K, x2 = 0.6413	954.969	1256.3	1.493
308.15 K, x2 = 0.7273	981.393	1246.3	1.205
308.15 K, x2 = 0.8031	1007.14	1238.5	1.014
308.15 K, x2 = 0.8744	1033.95	1233	0.869
308.15 K, x2 = 0.937	1059.96	1231.5	0.764
313.15 K, x2 = 0	814.098	1315	5.645
313.15 K, x2 = 0.1529	839.584	1299.4	4.074
313.15 K, x2 = 0.3008	867.761	1282	2.935
313.15 K, x2 = 0.4379	897.663	1264.9	2.152
313.15 K, x2 = 0.5505	925.493	1251	1.658
313.15 K, x2 = 0.6413	950.508	1239.8	1.346
313.15 K, x2 = 0.7273	976.738	1229.8	1.094
313.15 K, x2 = 0.8031	1002.28	1221.8	0.919
313.15 K, x2 = 0.8744	1028.88	1215.6	0.775
313.15 K, x2 = 0.937	1054.7	1213.3	0.676
